Earlier results in publication PMC6601333 (Biochemical and biophysical research communications, 2019).

SMILES	inhibition of HIV-2 PR, fold worse than for HIV-1 PR (HIV-2 PR; relative to HIV-1 PR)	inhibition of HIV-1 PR (in words) (wild type HIV-1 PR)	inhibition of HIV-2 PR (in words) (HIV-2 PR)
CC(C)CN(C[C@@H](O)[C@H](Cc1ccccc1)NC(=O)O[C@H]1CCOC1)S(=O)(=O)c1ccc(N)cc1 [APV, amprenavir]	19 fold	–	–
CC(C)CN(C[C@@H](O)[C@H](Cc1ccccc1)NC(=O)O[C@H]1CO[C@H]2OCC[C@H]21)S(=O)(=O)c1ccc(N)cc1 [DRV, darunavir]	–	effective inhibitors	effective inhibitors
CC(C)(C)NC(=O)[C@@H]1C[C@@H]2CCCC[C@@H]2CN1C[C@@H](O)[C@H](Cc1ccccc1)NC(=O)[C@H](CC(N)=O)NC(=O)c1ccc2ccccc2n1 [SQV, saquinavir]	–	effective inhibitors	effective inhibitors
